In ChEMBL document CHEMBL1201862, “PubChem BioAssay data set” (2004):
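96-well plates; 48 h exposure; 5 concentrations. Endpoints by linear interpolation between flanking doses. Not reached: highest tested concentration assigned. Here, GI50 denotes the concentration required for 50% inhibition of growth.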 The source made the active and inactive calls. No stated cut-off is given here; in the data, active = GI50 up to about 1.1 µM and inactive = higher.

Assays:
Experiment in all cases: NCI tumour cell line growth inhibition, 48 h
786-0 = test system: 786-0
A498 = test system: A498
A549 = test system: A549
ACHN = test system: ACHN
CAKI-1 = test system: CAKI-1
CCRF-CEM = test system: CCRF-CEM
DLD-1 = test system: DLD-1
DMS-114 = test system: DMS-114
DMS-273 = test system: DMS-273
HCC 2998 = test system: HCC 2998
HCT-116 = test system: HCT-116
HCT-15 = test system: HCT-15
HL-60 = test system: HL-60
HOP-62 = test system: HOP-62
HOP-92 = test system: HOP-92
HT-29 = test system: HT-29
IGROV-1 = test system: IGROV-1
K562 = test system: K562
KM12 = test system: KM12
LOX IMVI = test system: LOX IMVI
LXFL 529 = test system: LXFL 529
M14 = test system: M14
M19-MEL = test system: M19-MEL
MOLT-4 = test system: MOLT-4
Malme-3M = test system: Malme-3M
NCI-H226 = test system: NCI-H226
NCI-H23 = test system: NCI-H23
NCI-H460 = test system: NCI-H460
NCI-H522 = test system: NCI-H522
OVCAR-3 = test system: OVCAR-3
OVCAR-4 = test system: OVCAR-4
OVCAR-5 = test system: OVCAR-5
OVCAR-8 = test system: OVCAR-8
RPMI-8226 = test system: RPMI-8226
RXF 393 = test system: RXF 393
SF-268 = test system: SF-268
SF-295 = test system: SF-295
SF-539 = test system: SF-539
SK-MEL-28 = test system: SK-MEL-28
SK-MEL-2 = test system: SK-MEL-2
SK-MEL-5 = test system: SK-MEL-5
SK-OV-3 = test system: SK-OV-3
SN12C = test system: SN12C
SNB-19 = test system: SNB-19
SNB-75 = test system: SNB-75
SNB-78 = test system: SNB-78
SR = test system: SR
SW-620 = test system: SW-620
TK-10 = test system: TK-10
U-251 = test system: U-251
UACC-257 = test system: UACC-257
UACC-62 = test system: UACC-62
UO-31 = test system: UO-31
XF498 = test system: XF498
BT-549 = test system: BT-549
DU-145 = test system: DU-145
HOP-18 = test system: HOP-18
Hs-578T = test system: Hs-578T
KM-20L2 = test system: KM-20L2
MDA-MB-231 = test system: MDA-MB-231
MDA-MB-435 = test system: MDA-MB-435
MDA-N = test system: MDA-N
NCI/ADR-RES = test system: NCI/ADR-RES
PC-3 = test system: PC-3
T47D = test system: T47D
COLO 205 = test system: COLO 205
EKVX = test system: EKVX

In the case of `O=[N+]([O-])c1ccccc1[S+]([O-])c1ccccc1` (stereo not drawn), the GI50 (786-0) is reported as > 100 µM (inactive), the GI50 (A498) is reported as 63.2 µM (inactive) and the GI50 (A549) is reported as 52.8 µM (inactive). For the same compound, the GI50 (ACHN) was 69.7 µM (inactive), the GI50 (CAKI-1) was 60.4 µM (inactive) and the GI50 (CCRF-CEM) was 47.8 µM (inactive). The GI50 (DLD-1) was 71 µM (inactive), the GI50 (DMS-114) was 22.1 µM (inactive) and the GI50 (DMS-273) was 47.2 µM (inactive). The GI50 (HCC 2998) was 97.7 µM (inactive), the GI50 (HCT-116) was 57.9 µM (inactive) and the GI50 (HCT-15) was 38.7 µM. The GI50 (HL-60) was 27.7 µM (inactive), the GI50 (HOP-62) was > 100 µM (inactive) and the GI50 (HOP-92) was 71 µM (inactive). The GI50 (HT-29) was 62.7 µM (inactive), the GI50 (IGROV-1) was 68.2 µM (inactive) and the GI50 (K562) was 35.1 µM (inactive). The GI50 (KM12) was 87.9 µM (inactive), the GI50 (LOX IMVI) was 21.1 µM (inactive) and the GI50 (LXFL 529) was > 100 µM (inactive). For the same compound, the GI50 (M14) was > 100 µM (inactive), the GI50 (M19-MEL) was 21.3 µM (inactive) and the GI50 (MOLT-4) was 57 µM (inactive). The GI50 (Malme-3M) was > 100 µM (inactive), the GI50 (NCI-H226) was 49.9 µM (inactive) and the GI50 (NCI-H23) was 44.5 µM (inactive). For the same compound, the GI50 (NCI-H460) was 53 µM (inactive), the GI50 (NCI-H522) was 65.6 µM (inactive) and the GI50 (OVCAR-3) was 73.8 µM (inactive). The GI50 (OVCAR-4) was 49.2 µM (inactive), the GI50 (OVCAR-5) was > 100 µM (inactive) and the GI50 (OVCAR-8) was > 100 µM (inactive). The GI50 (RPMI-8226) was 52.5 µM (inactive), the GI50 (RXF 393) was 84.1 µM (inactive) and the GI50 (SF-268) was 77.6 µM (inactive). For the same compound, the GI50 (SF-295) was 90.8 µM (inactive), the GI50 (SF-539) was 70.6 µM (inactive) and the GI50 (SK-MEL-28) was > 100 µM (inactive). The GI50 (SK-MEL-2) was > 100 µM (inactive), the GI50 (SK-MEL-5) was 36.8 µM (inactive) and the GI50 (SK-OV-3) was > 100 µM (inactive). For the same compound, the GI50 (SN12C) was 75.5 µM (inactive), the GI50 (SNB-19) was 87.3 µM (inactive) and the GI50 (SNB-75) was 22.1 µM (inactive). For the same compound, the GI50 (SNB-78) was 56.9 µM (inactive), the GI50 (SR) was 71.8 µM (inactive) and the GI50 (SW-620) was > 100 µM (inactive). For the same compound, the GI50 (TK-10) was > 100 µM (inactive), the GI50 (U-251) was 41.2 µM (inactive) and the GI50 (UACC-257) was 20.7 µM (inactive). The GI50 (UACC-62) was > 100 µM (inactive), the GI50 (UO-31) was 63.5 µM (inactive) and the GI50 (XF498) was > 100 µM (inactive).
In the case of `CCCCCC(O)C1C(=O)OC(C)C(O)/C=C/C=C/C=C/C=C/C=C(\C)C(O)C(O)C(O)CC(O)CC(O)CC(O)CC(O)CC1O` (stereo not drawn), the GI50 (786-0) is reported as > 100 µM (inactive), the GI50 (ACHN) is reported as > 100 µM (inactive) and the GI50 (BT-549) is reported as > 100 µM (inactive). For the same compound, the GI50 (DLD-1) was 1.6 µM (inactive), the GI50 (DMS-114) was 1.53 µM (inactive) and the GI50 (DMS-273) was 1.34 µM (inactive). For the same compound, the GI50 (DU-145) was > 100 µM (inactive), the GI50 (HCC 2998) was 1.76 µM (inactive) and the GI50 (HCT-15) was 2.42 µM. The GI50 (HL-60) was > 100 µM (inactive), the GI50 (HOP-18) was 2.48 µM (inactive) and the GI50 (HOP-92) was 1.71 µM (inactive). The GI50 (Hs-578T) was > 100 µM (inactive), the GI50 (KM-20L2) was 2.28 µM (inactive) and the GI50 (M14) was > 100 µM (inactive). For the same compound, the GI50 (M19-MEL) was 1.24 µM (inactive), the GI50 (MDA-MB-231) was > 100 µM (inactive) and the GI50 (MDA-MB-435) was > 100 µM (inactive). The GI50 (MDA-N) was > 100 µM (inactive), the GI50 (NCI-H460) was 1.56 µM (inactive) and the GI50 (NCI-H522) was 1.73 µM (inactive). For the same compound, the GI50 (NCI/ADR-RES) was 1.51 µM (inactive), the GI50 (OVCAR-4) was 1.82 µM (inactive) and the GI50 (PC-3) was > 100 µM (inactive). The GI50 (RXF 393) was 1.41 µM (inactive), the GI50 (SNB-78) was 1.88 µM (inactive) and the GI50 (SR) was > 100 µM (inactive). For the same compound, the GI50 (T47D) was > 100 µM (inactive), the GI50 (TK-10) was > 100 µM (inactive) and the GI50 (UO-31) was 1.79 µM (inactive). For the same compound, the GI50 (XF498) was 1.49 µM (inactive).
`Cc1ccc([N+]2=NC(c3ccc([N+](=O)[O-])cc3)=NN(c3ccccc3)C2)cc1` was tested, and the GI50 (786-0) was > 100 µM (inactive), the GI50 (A498) was 95.9 µM (inactive) and the GI50 (A549) was > 100 µM (inactive). For the same compound, the GI50 (ACHN) was > 100 µM (inactive), the GI50 (CCRF-CEM) was 24.3 µM (inactive) and the GI50 (COLO 205) was > 100 µM (inactive). For the same compound, the GI50 (DLD-1) was 25.7 µM (inactive), the GI50 (DMS-114) was 40.1 µM (inactive) and the GI50 (DMS-273) was 70.6 µM (inactive). For the same compound, the GI50 (EKVX) was 43.7 µM (inactive), the GI50 (HCC 2998) was > 100 µM (inactive) and the GI50 (HCT-116) was 59.7 µM (inactive). The GI50 (HCT-15) was 38.6 µM, the GI50 (HL-60) was 61.7 µM (inactive) and the GI50 (HOP-62) was > 100 µM (inactive). For the same compound, the GI50 (HT-29) was 57.9 µM (inactive), the GI50 (IGROV-1) was 94.4 µM (inactive) and the GI50 (K562) was 20.3 µM (inactive). The GI50 (KM-20L2) was > 100 µM (inactive), the GI50 (LOX IMVI) was 60 µM (inactive) and the GI50 (LXFL 529) was 42.1 µM (inactive). For the same compound, the GI50 (M19-MEL) was > 100 µM (inactive), the GI50 (MOLT-4) was 21 µM (inactive) and the GI50 (Malme-3M) was > 100 µM (inactive). For the same compound, the GI50 (NCI-H226) was > 100 µM (inactive), the GI50 (NCI-H23) was 38.4 µM (inactive) and the GI50 (NCI-H460) was 41 µM (inactive). For the same compound, the GI50 (NCI-H522) was 16.4 µM (inactive), the GI50 (OVCAR-3) was > 100 µM (inactive) and the GI50 (OVCAR-4) was 17.6 µM (inactive). The GI50 (OVCAR-5) was > 100 µM (inactive), the GI50 (OVCAR-8) was 42.1 µM (inactive) and the GI50 (RPMI-8226) was 57.4 µM (inactive). The GI50 (RXF 393) was 51.9 µM (inactive), the GI50 (SF-268) was > 100 µM (inactive) and the GI50 (SF-295) was 53.3 µM (inactive). The GI50 (SK-MEL-28) was > 100 µM (inactive), the GI50 (SK-MEL-5) was 33.2 µM (inactive) and the GI50 (SN12C) was > 100 µM (inactive). The GI50 (SNB-19) was 75.3 µM (inactive), the GI50 (SNB-78) was 32.5 µM (inactive) and the GI50 (SR) was 46.7 µM (inactive). The GI50 (SW-620) was > 100 µM (inactive), the GI50 (TK-10) was > 100 µM (inactive) and the GI50 (U-251) was 72.8 µM (inactive). The GI50 (UACC-257) was 47.1 µM (inactive), the GI50 (UO-31) was 86.7 µM (inactive) and the GI50 (XF498) was > 100 µM (inactive).
